Source: ChEMBL document CHEMBL1139874, “New diphenylacetylenes as probes for positron emission tomographic imaging of amyloid plaques” (J Med Chem, 2007)
One block for each compound: values may come before it.

Legend:
[1] = biological target: Amyloid-beta precursor protein (Homo sapiens, UniProt P05067); assay: Displacement of [125I]IMPY from human beta amyloid plaque in brain homogenates; type: tissue-based
Liver [2] = assay: Biodistribution in ICR mouse liver at 5 to 10 uCi, iv after 2 hrs; type: ADME, organism-based; conditions: in vivo
Zone of skin [3] = assay: Biodistribution in ICR mouse skin at 5 to 10 uCi, iv after 2 hrs; type: ADME, organism-based; conditions: in vivo
Brain [4] = assay: Biodistribution in ICR mouse brain at 5 to 10 uCi, iv after 2 hrs; type: ADME, organism-based; conditions: in vivo
Bone [5] = assay: Biodistribution in ICR mouse bone at 5 to 10 uCi, iv after 2 hrs; type: ADME, organism-based, Bone element; conditions: in vivo
[6] = Partition coefficient, log P at pH 7.4; type: physicochemical; conditions: octanol/water
Blood [7] = assay: Biodistribution in ICR mouse blood at 5 to 10 uCi, iv after 2 mins; type: ADME, organism-based; conditions: in vivo
Heart [8] = assay: Biodistribution in ICR mouse heart at 5 to 10 uCi, iv after 2 mins; type: ADME, organism-based; conditions: in vivo
Muscle tissue [9] = assay: Biodistribution in ICR mouse muscle at 5 to 10 uCi, iv after 2 mins; type: ADME, organism-based; conditions: in vivo
Lung [10] = assay: Biodistribution in ICR mouse lung at 5 to 10 uCi, iv after 2 mins; type: ADME, organism-based; conditions: in vivo
Kidney [11] = assay: Biodistribution in ICR mouse kidney at 5 to 10 uCi, iv after 2 mins; type: ADME, organism-based; conditions: in vivo
Spleen [12] = assay: Biodistribution in ICR mouse spleen at 5 to 10 uCi, iv after 2 mins; type: ADME, organism-based; conditions: in vivo
Liver [13] = assay: Biodistribution in ICR mouse liver at 5 to 10 uCi, iv after 2 mins; type: ADME, organism-based; conditions: in vivo
Zone of skin [14] = assay: Biodistribution in ICR mouse skin at 5 to 10 uCi, iv after 2 mins; type: ADME, organism-based; conditions: in vivo
Brain [15] = assay: Biodistribution in ICR mouse brain at 5 to 10 uCi, iv after 2 mins; type: ADME, organism-based; conditions: in vivo
Bone [16] = assay: Biodistribution in ICR mouse bone at 5 to 10 uCi, iv after 2 mins; type: ADME, organism-based, Bone element; conditions: in vivo
Blood [17] = assay: Biodistribution in ICR mouse blood at 5 to 10 uCi, iv after 30 mins; type: ADME, organism-based; conditions: in vivo, 0.5 h
Heart [18] = assay: Biodistribution in ICR mouse heart at 5 to 10 uCi, iv after 30 mins; type: ADME, organism-based; conditions: in vivo, 0.5 h
Muscle tissue [19] = assay: Biodistribution in ICR mouse muscle at 5 to 10 uCi, iv after 30 mins; type: ADME, organism-based; conditions: in vivo, 0.5 h
Lung [20] = assay: Biodistribution in ICR mouse lung at 5 to 10 uCi, iv after 30 mins; type: ADME, organism-based; conditions: in vivo, 0.5 h
Kidney [21] = assay: Biodistribution in ICR mouse kidney at 5 to 10 uCi, iv after 30 mins; type: ADME, organism-based; conditions: in vivo, 0.5 h
Spleen [22] = assay: Biodistribution in ICR mouse spleen at 5 to 10 uCi, iv after 30 mins; type: ADME, organism-based; conditions: in vivo, 0.5 h
Liver [23] = assay: Biodistribution in ICR mouse liver at 5 to 10 uCi, iv after 30 mins; type: ADME, organism-based; conditions: in vivo, 0.5 h
Zone of skin [24] = assay: Biodistribution in ICR mouse skin at 5 to 10 uCi, iv after 30 mins; type: ADME, organism-based; conditions: in vivo, 0.5 h
Brain [25] = assay: Biodistribution in ICR mouse brain at 5 to 10 uCi, iv after 30 mins; type: ADME, organism-based; conditions: in vivo, 0.5 h
Bone [26] = assay: Biodistribution in ICR mouse bone at 5 to 10 uCi, iv after 30 mins; type: ADME, organism-based, Bone element; conditions: in vivo, 0.5 h
Blood [27] = assay: Biodistribution in ICR mouse blood at 5 to 10 uCi, iv after 1 hr; type: ADME, organism-based; conditions: in vivo
Heart [28] = assay: Biodistribution in ICR mouse heart at 5 to 10 uCi, iv after 1 hr; type: ADME, organism-based; conditions: in vivo
Muscle tissue [29] = assay: Biodistribution in ICR mouse muscle at 5 to 10 uCi, iv after 1 hr; type: ADME, organism-based; conditions: in vivo
Lung [30] = assay: Biodistribution in ICR mouse lung at 5 to 10 uCi, iv after 1 hr; type: ADME, organism-based; conditions: in vivo
Kidney [31] = assay: Biodistribution in ICR mouse kidney at 5 to 10 uCi, iv after 1 hr; type: ADME, organism-based; conditions: in vivo
Spleen [32] = assay: Biodistribution in ICR mouse spleen at 5 to 10 uCi, iv after 1 hr; type: ADME, organism-based; conditions: in vivo
Liver [33] = assay: Biodistribution in ICR mouse liver at 5 to 10 uCi, iv after 1 hr; type: ADME, organism-based; conditions: in vivo
Zone of skin [34] = assay: Biodistribution in ICR mouse skin at 5 to 10 uCi, iv after 1 hr; type: ADME, organism-based; conditions: in vivo
Brain [35] = assay: Biodistribution in ICR mouse brain at 5 to 10 uCi, iv after 1 hr; type: ADME, organism-based; conditions: in vivo
Bone [36] = assay: Biodistribution in ICR mouse bone at 5 to 10 uCi, iv after 1 hr; type: ADME, organism-based, Bone element; conditions: in vivo
Blood [37] = assay: Biodistribution in ICR mouse blood at 5 to 10 uCi, iv after 2 hrs; type: ADME, organism-based; conditions: in vivo
Heart [38] = assay: Biodistribution in ICR mouse heart at 5 to 10 uCi, iv after 2 hrs; type: ADME, organism-based; conditions: in vivo
Muscle tissue [39] = assay: Biodistribution in ICR mouse muscle at 5 to 10 uCi, iv after 2 hrs; type: ADME, organism-based; conditions: in vivo
Lung [40] = assay: Biodistribution in ICR mouse lung at 5 to 10 uCi, iv after 2 hrs; type: ADME, organism-based; conditions: in vivo
Kidney [41] = assay: Biodistribution in ICR mouse kidney at 5 to 10 uCi, iv after 2 hrs; type: ADME, organism-based; conditions: in vivo
Spleen [42] = assay: Biodistribution in ICR mouse spleen at 5 to 10 uCi, iv after 2 hrs; type: ADME, organism-based; conditions: in vivo

Amyloid-beta precursor protein, sequence (P05067 whole entry): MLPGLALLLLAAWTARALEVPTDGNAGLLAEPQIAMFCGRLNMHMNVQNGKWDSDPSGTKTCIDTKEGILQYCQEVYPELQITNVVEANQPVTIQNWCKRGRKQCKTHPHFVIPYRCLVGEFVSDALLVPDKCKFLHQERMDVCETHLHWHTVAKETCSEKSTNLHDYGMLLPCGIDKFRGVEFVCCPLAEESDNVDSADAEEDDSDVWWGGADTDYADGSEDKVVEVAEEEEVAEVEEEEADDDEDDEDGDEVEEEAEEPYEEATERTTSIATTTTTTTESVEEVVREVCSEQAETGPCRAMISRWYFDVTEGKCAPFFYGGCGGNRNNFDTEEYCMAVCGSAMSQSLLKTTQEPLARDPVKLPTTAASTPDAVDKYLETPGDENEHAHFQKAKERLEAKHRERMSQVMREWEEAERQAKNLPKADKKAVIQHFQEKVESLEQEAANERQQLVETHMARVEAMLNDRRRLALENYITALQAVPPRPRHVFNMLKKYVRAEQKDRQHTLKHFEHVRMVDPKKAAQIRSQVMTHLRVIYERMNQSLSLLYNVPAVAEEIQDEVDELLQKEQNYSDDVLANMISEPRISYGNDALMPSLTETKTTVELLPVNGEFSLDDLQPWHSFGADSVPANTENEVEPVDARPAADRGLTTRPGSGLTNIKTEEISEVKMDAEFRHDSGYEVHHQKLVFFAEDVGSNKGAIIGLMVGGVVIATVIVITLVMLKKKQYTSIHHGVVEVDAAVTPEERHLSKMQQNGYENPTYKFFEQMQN

Ki [1]: 67.6 nM
SMILES: Nc1ccc(C#Cc2ccc(OCCOCCOCCO)cc2)cc1

Drug uptake (Liver [2]): 11.7 % ID/g
Drug uptake (Zone of skin [3]): 2.04 % ID/g
Drug uptake (Brain [4]): 0.82 % ID/g
Drug uptake (Bone [5]): 2.07 % ID/g
logD [6]: 3.48
Drug uptake (Blood [7]): 7.89 % ID/g
Drug uptake (Heart [8]): 4.73 % ID/g
Drug uptake (Muscle tissue [9]): 0.79 % ID/g
Drug uptake (Lung [10]): 6.57 % ID/g
Drug uptake (Kidney [11]): 5.55 % ID/g
Drug uptake (Spleen [12]): 3.74 % ID/g
Drug uptake (Liver [13]): 29.6 % ID/g
Drug uptake (Zone of skin [14]): 0.94 % ID/g
Drug uptake (Brain [15]): 4.42 % ID/g
Drug uptake (Bone [16]): 1.54 % ID/g
Drug uptake (Blood [17]): 7.9 % ID/g
Drug uptake (Heart [18]): 2.84 % ID/g
Drug uptake (Muscle tissue [19]): 1.26 % ID/g
Drug uptake (Lung [20]): 4.77 % ID/g
Drug uptake (Kidney [21]): 4.78 % ID/g
Drug uptake (Spleen [22]): 3.6 % ID/g
Drug uptake (Liver [23]): 18.3 % ID/g
Drug uptake (Zone of skin [24]): 2.11 % ID/g
Drug uptake (Brain [25]): 1.03 % ID/g
Drug uptake (Bone [26]): 1.46 % ID/g
Drug uptake (Blood [27]): 10.3 % ID/g
Drug uptake (Heart [28]): 3.54 % ID/g
Drug uptake (Muscle tissue [29]): 1.38 % ID/g
Drug uptake (Lung [30]): 6.01 % ID/g
Drug uptake (Kidney [31]): 6.17 % ID/g
Drug uptake (Spleen [32]): 3.78 % ID/g
Drug uptake (Liver [33]): 15.6 % ID/g
Drug uptake (Zone of skin [34]): 2.55 % ID/g
Drug uptake (Brain [35]): 0.99 % ID/g
Drug uptake (Bone [36]): 1.92 % ID/g
Drug uptake (Blood [37]): 7.84 % ID/g
Drug uptake (Heart [38]): 2.6 % ID/g
Drug uptake (Muscle tissue [39]): 1.26 % ID/g
Drug uptake (Lung [40]): 4.67 % ID/g
Drug uptake (Kidney [41]): 5.55 % ID/g
Drug uptake (Spleen [42]): 3.3 % ID/g
SMILES: CNc1ccc(C#Cc2ccc(OCCOCC[18F])cc2)cc1

Ki [1]: 1.5 nM
SMILES: CNc1ccc(C#Cc2ccc(O)cc2)cc1

Ki [1]: 2.9 nM
SMILES: COc1ccc(C#Cc2ccc(O)cc2)cc1

Drug uptake (Liver [2]): 8.85 % ID/g
Drug uptake (Zone of skin [3]): 1.67 % ID/g
Drug uptake (Brain [4]): 1.34 % ID/g
Drug uptake (Bone [5]): 1.65 % ID/g
logD [6]: 3.12
Drug uptake (Blood [7]): 7.33 % ID/g
Drug uptake (Heart [8]): 10.5 % ID/g
Drug uptake (Muscle tissue [9]): 0.91 % ID/g
Drug uptake (Lung [10]): 11.1 % ID/g
Drug uptake (Kidney [11]): 12.9 % ID/g
Drug uptake (Spleen [12]): 5.12 % ID/g
Drug uptake (Liver [13]): 19.3 % ID/g
Drug uptake (Zone of skin [14]): 0.85 % ID/g
Drug uptake (Brain [15]): 5.41 % ID/g
Drug uptake (Bone [16]): 1.78 % ID/g
Drug uptake (Blood [17]): 6.13 % ID/g
Drug uptake (Heart [18]): 2.82 % ID/g
Drug uptake (Muscle tissue [19]): 1.38 % ID/g
Drug uptake (Lung [20]): 4.66 % ID/g
Drug uptake (Kidney [21]): 4.75 % ID/g
Drug uptake (Spleen [22]): 2.94 % ID/g
Drug uptake (Liver [23]): 11.2 % ID/g
Drug uptake (Zone of skin [24]): 2.23 % ID/g
Drug uptake (Brain [25]): 3.69 % ID/g
Drug uptake (Bone [26]): 1.41 % ID/g
Drug uptake (Blood [27]): 5.68 % ID/g
Drug uptake (Heart [28]): 2.48 % ID/g
Drug uptake (Muscle tissue [29]): 1.21 % ID/g
Drug uptake (Lung [30]): 3.82 % ID/g
Drug uptake (Kidney [31]): 4.79 % ID/g
Drug uptake (Spleen [32]): 2.38 % ID/g
Drug uptake (Liver [33]): 9.99 % ID/g
Drug uptake (Zone of skin [34]): 1.71 % ID/g
Drug uptake (Brain [35]): 2.06 % ID/g
Drug uptake (Bone [36]): 1.36 % ID/g
Drug uptake (Blood [37]): 5.17 % ID/g
Drug uptake (Heart [38]): 2.11 % ID/g
Drug uptake (Muscle tissue [39]): 1.03 % ID/g
Drug uptake (Lung [40]): 3.38 % ID/g
Drug uptake (Kidney [41]): 4.16 % ID/g
Drug uptake (Spleen [42]): 2.31 % ID/g
SMILES: CN(C)c1ccc(C#Cc2ccc(OCCOCC[18F])cc2)cc1

Ki [1]: 106 nM
SMILES: Nc1ccc(C#Cc2ccc(O)cc2)cc1

Ki [1]: 12 nM
SMILES: Nc1ccc(C#Cc2ccc(OCCOCCF)cc2)cc1

Ki [1]: 3.8 nM
SMILES: CN(C)c1ccc(C#Cc2ccc(OCCOCCO)cc2)cc1

Ki [1]: 3.4 nM
SMILES: CN(C)c1ccc(C#Cc2ccc(OCCOCCOCCO)cc2)cc1

Drug uptake (Liver [2]): 9.14 % ID/g
Drug uptake (Zone of skin [3]): 0.6 % ID/g
Drug uptake (Brain [4]): 0.38 % ID/g
Drug uptake (Bone [5]): 0.82 % ID/g
logD [6]: 3.07
Drug uptake (Blood [7]): 3.28 % ID/g
Drug uptake (Heart [8]): 4.21 % ID/g
Drug uptake (Muscle tissue [9]): 1.97 % ID/g
Drug uptake (Lung [10]): 4.64 % ID/g
Drug uptake (Kidney [11]): 4.74 % ID/g
Drug uptake (Spleen [12]): 2.69 % ID/g
Drug uptake (Liver [13]): 25.8 % ID/g
Drug uptake (Zone of skin [14]): 1.24 % ID/g
Drug uptake (Brain [15]): 4.55 % ID/g
Drug uptake (Bone [16]): 1.5 % ID/g
Drug uptake (Blood [17]): 3.28 % ID/g
Drug uptake (Heart [18]): 1.4 % ID/g
Drug uptake (Muscle tissue [19]): 0.61 % ID/g
Drug uptake (Lung [20]): 2.1 % ID/g
Drug uptake (Kidney [21]): 2.9 % ID/g
Drug uptake (Spleen [22]): 1.22 % ID/g
Drug uptake (Liver [23]): 14.8 % ID/g
Drug uptake (Zone of skin [24]): 1.4 % ID/g
Drug uptake (Brain [25]): 0.42 % ID/g
Drug uptake (Bone [26]): 0.66 % ID/g
Drug uptake (Blood [27]): 3.22 % ID/g
Drug uptake (Heart [28]): 1.24 % ID/g
Drug uptake (Muscle tissue [29]): 0.62 % ID/g
Drug uptake (Lung [30]): 2.04 % ID/g
Drug uptake (Kidney [31]): 2.4 % ID/g
Drug uptake (Spleen [32]): 0.95 % ID/g
Drug uptake (Liver [33]): 10.2 % ID/g
Drug uptake (Zone of skin [34]): 0.95 % ID/g
Drug uptake (Brain [35]): 0.37 % ID/g
Drug uptake (Bone [36]): 0.65 % ID/g
Drug uptake (Blood [37]): 3.17 % ID/g
Drug uptake (Heart [38]): 0.96 % ID/g
Drug uptake (Muscle tissue [39]): 0.39 % ID/g
Drug uptake (Lung [40]): 1.72 % ID/g
Drug uptake (Kidney [41]): 1.8 % ID/g
Drug uptake (Spleen [42]): 1.02 % ID/g
SMILES: CNc1ccc(C#Cc2ccc(OCCOCCOCC[18F])cc2)cc1

Ki [1]: 175 nM
SMILES: C(#Cc1ccccc1)c1ccccc1 [DIPHENYLACETYLENE]
